Source: patent US20020177120A1, “ASSAYS FOR APOTOSIS MODULATORS” (priority 1999, published 2002)

Experiments:
F9-1-13 cells = experiment: Cell-based FRET reporter assay in F9-1-13 (SgAT) cells; set-up: species or system human
Excerpt: (§1) Transfection of pcDNA3VH-SgAT and pcDNA3VH-SnAT into U-138 cells (using methods described above) resulted initially in few colonies and FRET signal was lost in many clones during expansion, however, from among the various subclones the F9-1-13 (pcDNA3VH-SgAT transfected; ATCC No. PTA-84) and F10-24-2 (pcDNA3-SnAT transfected) subclones were eventually expanded and shown to express stable FRET signals. As desired, the FRET signal expressed in F9-1-13 decreased in response to both staurosporin and anti-Fas antibody treatment of cells, while the FRET signal expressed by the F10-24-2 control cells, (i.e., lacking a caspase substrate domain), was unaffected following staurosporin or anti-Fas antibody treatment. […] F9-1-13 therefore appeared suitable for microtiter assays, and perhaps use in HTS assays for screening to identify and select modulators of apoptosis.
Studies were initiated to adapt the experimental cell-based FRET assay of EXAMPLE 5 to a format suitable for use in high-throughput screening. First, the assay was scaled down from a 24-well to a 96-well plate format. Cells from three different F9 parental cultures were plated in a black-sided 96-well plates (Costar #3904) at a density of 32,000 cells/well (˜1×10^5 cells/cm^2); allowed to adhere overnight; and then the media was replaced with either 100 μl fresh media containing inducer (5 μM staurosporin in 0.25% DMSO vehicle) or 100 μl containing only vehicle (0.25% DMSO). After an overnight incubation, fluorescence measurements were made to evaluate FRET signal changes. […] The assay therefore appeared to be adaptable to a 96-well format but it was not initially clear how signal might be improved to increase the signal-to-background ratio.
A 96-well FRET assay was evaluated for inter-assay well variability and inter-plate variability. Possible signal drift during measurement of the FRET fluorescence signal was evaluated using one of two different robotics-compatible rapid fluorescence plate readers (SpeedReader or Cytofluor II). After plating at an initial density of about 60,000 cells/well, and overnight culture F9-1-13 cells were treated with 5 μM staurosporin, or vehicle. After an overnight incubation in staurosporin (i.e., 16-24 hrs.), the plates were either washed, or not washed, and then assayed repeatedly over the next 1.5 hours using either of the plate readers. […] However, using the same assay conditions but with anti-Fas antibody as an inducer, different results were recorded. […] The basis for the observed differences in measuring devices is not clear, but may relate to the design of the light source and/or the sensitivity of the detection circuitry in the two different respective fluorescence readers as well as possible different means for optically or digitally subtracting background incident radiation.
Assay Confirmation: The following experiment was performed to validate the ability of the 96-well FRET assay to detect inhibitors of apoptosis: namely, F9-1-13 cells (n=5 wells) were treated with 50-100 μM Z-VAD-fmk (a broad spectrum caspase inhibitor) or vehicle (n=55) in randomized wells of a 96-well plate. All of these wells, and six additional positive control wells (i.e., lacking the inhibitor), were treated with 5 μM staurosporine in 0.25% DMSO vehicle. Six negative control wells were treated with vehicle only (0.25% DMSO). After overnight incubation, FRET signal changes were evaluated as described above.
Three alternatives to staurosporine induction were evaluated: serum withdrawal; c2-ceramide treatment; and induction via engagement of the CD95/Fas receptor with anti-Fas antibody. […] To increase the proportion of adherent cells, poly-D-lysine and 0.1% gelatin were evaluated in anti-Fas antibody treated F9-1-13 cells. […] Anti-Fas antibody was therefore chosen as a preferred inducer of apoptosis for high-throughput screening. […]

F10-24-2 control cells = experiment: FRET reporter control assay in F10-24-2 (SnAT) cells; assay type: cell-based, human
Excerpt: as §1

CN[C@@H]1C[C@H]2O[C@@](C)([C@@H]1OC)n1c3ccccc3c3c4c(c5c6ccccc6n2c5c31)C(=O)NC4 [staurosporin]
FRET signal compared to the vehicle control (F9-1-13 cells; 96-well, three F9 parental cultures, 32,000 cells/well, 5 μM overnight): significant (P<0.05) reduction in the FRET signal | time to measurable changes in FRET signal (F9-1-13 cells; 60,000 cells/well, 5 μM, either fluorescence reader): ≤ 4 h | FRET signal response to inducer treatment (F9-1-13 cells; F9-1-13 subclone): decreased | FRET reporter cleavage by western blot after induction (F9-1-13 cells; staurosporin induction): significant (but not complete) cleavage of reporter | FRET signal response to inducer treatment (F10-24-2 control cells; reporter lacking a caspase substrate domain): unaffected | FRET reporter western blot before and after induction of apoptosis (F10-24-2 control cells; staurosporin induction): no visible difference
